pEC50, pIC50: −log10 of the molar value. Like-named read-outs stand apart in the source and are kept apart here. Positions of bridges follow the written chain, without caps; N, C: chain ends. Non-standard residues stand in square brackets, D forms with d. Residues, ends and D or L forms follow the SMILES beside them. *: point of attachment. GABA = NCCCC(=O)O; NHOH = ON*
Tests used:
[1] = target: T1, recombinant human KDAC8 (Homo sapiens, UniProt Q9BY41); test: KDAC inhibition assay, Caliper EZ Reader II; format: biochemical; settings: for pIC50: 10-point dose curve from 30 μM; for KDAC Inhibition Activity KDAC8 (% inhibition): % inhibition at 30 μM
T1 construct: purchased BPS Bioscience
T1 sequence (Q9BY41 1-377): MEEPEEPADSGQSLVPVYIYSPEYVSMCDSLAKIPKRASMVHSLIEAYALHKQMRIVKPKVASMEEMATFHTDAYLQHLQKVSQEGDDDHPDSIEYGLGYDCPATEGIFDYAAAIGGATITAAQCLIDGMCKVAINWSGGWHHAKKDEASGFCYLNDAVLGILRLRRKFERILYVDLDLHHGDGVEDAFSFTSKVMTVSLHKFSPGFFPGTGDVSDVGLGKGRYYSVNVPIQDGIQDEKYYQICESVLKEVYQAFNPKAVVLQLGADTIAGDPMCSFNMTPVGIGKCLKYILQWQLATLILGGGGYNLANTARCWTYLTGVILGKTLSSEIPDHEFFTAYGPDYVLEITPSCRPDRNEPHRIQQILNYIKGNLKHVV

[2] = target: T2, recombinant human KDAC1 (Homo sapiens, UniProt Q13547); test: KDAC inhibition assay, Caliper EZ Reader II; format: biochemical; settings: for KDAC Inhibition Activity KDAC1 (% inhibition): % inhibition at 30 μM
T2 construct: purchased BPS Bioscience
T2 sequence (Q13547 whole entry): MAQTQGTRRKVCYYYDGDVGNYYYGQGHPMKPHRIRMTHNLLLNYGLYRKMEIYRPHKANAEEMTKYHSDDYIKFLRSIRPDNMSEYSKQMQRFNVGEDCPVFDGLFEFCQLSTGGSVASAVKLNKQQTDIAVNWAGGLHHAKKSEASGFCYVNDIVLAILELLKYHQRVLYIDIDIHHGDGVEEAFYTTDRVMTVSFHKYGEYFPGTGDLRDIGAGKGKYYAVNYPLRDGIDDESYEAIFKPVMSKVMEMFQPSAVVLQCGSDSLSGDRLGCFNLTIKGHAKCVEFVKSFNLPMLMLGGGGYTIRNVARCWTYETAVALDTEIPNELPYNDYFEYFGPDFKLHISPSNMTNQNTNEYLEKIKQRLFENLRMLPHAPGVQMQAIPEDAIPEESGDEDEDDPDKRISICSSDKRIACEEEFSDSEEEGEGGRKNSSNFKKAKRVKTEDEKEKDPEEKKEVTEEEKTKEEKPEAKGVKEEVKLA

[3] = target: T3, recombinant human KDAC3 (Homo sapiens, UniProt O15379); test: KDAC inhibition assay, Caliper EZ Reader II; format: biochemical; settings: for pIC50: 10-point dose curve from 30 μM, read-out: KDAC Inhibition Activity (IC50) KDAC3; for KDAC Inhibition Activity KDAC3 (% inhibition): % inhibition at 30 μM
T3 construct: purchased BPS Bioscience
T3 sequence (O15379 whole entry): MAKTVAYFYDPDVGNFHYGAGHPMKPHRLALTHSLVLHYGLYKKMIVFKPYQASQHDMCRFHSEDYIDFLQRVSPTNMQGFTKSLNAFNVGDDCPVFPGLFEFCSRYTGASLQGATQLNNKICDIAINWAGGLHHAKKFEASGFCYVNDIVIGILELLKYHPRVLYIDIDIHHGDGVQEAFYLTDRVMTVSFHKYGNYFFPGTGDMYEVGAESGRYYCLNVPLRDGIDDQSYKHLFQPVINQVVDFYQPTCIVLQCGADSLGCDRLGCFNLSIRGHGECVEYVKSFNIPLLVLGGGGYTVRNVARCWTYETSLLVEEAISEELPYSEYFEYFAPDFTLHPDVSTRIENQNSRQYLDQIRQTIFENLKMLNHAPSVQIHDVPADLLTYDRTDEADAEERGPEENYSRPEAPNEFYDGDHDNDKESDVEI
T3 sequence (Q9Y618 395-489 partner limits assumed): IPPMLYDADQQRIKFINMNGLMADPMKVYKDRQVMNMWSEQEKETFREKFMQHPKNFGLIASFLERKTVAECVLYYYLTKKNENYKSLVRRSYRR

[4] = test system: JLAT 10.6 cells, which have HIV-1-GFP stably integrated; test: Reactivation of HIV from latency in JLAT 10.6 cells (GFP, FACS); format: cell-based; settings: J-Lat 10.6, 24 h, read-out: EC50 in reactivating HIV from latency
Protocol: JLAT 10.6 cells, which have HIV-1-GFP stably integrated, were incubated with the indicated compounds for 24 hours. […] Upon stimulation with an appropriate agent, they can produce HIV as measured by GFP recognition with fluorescent-activated cell sorting (FACS). Cells were fixed and FACS performed for GFP as a surrogate for HIV production using TNF alpha as positive control. Largazoles are SDL256, JMF 1080, and SDL148. Relative activation is normalized to TNF alpha.

[5] = target: T4, recombinant human KDAC6 (Homo sapiens, UniProt Q9UBN7); test: KDAC inhibition assay, Caliper EZ Reader II; format: biochemical; settings: for KDAC Inhibition Activity KDAC6 (% inhibition): % inhibition at 30 μM
T4 construct: purchased BPS Bioscience
T4 sequence (Q9UBN7 1-1215): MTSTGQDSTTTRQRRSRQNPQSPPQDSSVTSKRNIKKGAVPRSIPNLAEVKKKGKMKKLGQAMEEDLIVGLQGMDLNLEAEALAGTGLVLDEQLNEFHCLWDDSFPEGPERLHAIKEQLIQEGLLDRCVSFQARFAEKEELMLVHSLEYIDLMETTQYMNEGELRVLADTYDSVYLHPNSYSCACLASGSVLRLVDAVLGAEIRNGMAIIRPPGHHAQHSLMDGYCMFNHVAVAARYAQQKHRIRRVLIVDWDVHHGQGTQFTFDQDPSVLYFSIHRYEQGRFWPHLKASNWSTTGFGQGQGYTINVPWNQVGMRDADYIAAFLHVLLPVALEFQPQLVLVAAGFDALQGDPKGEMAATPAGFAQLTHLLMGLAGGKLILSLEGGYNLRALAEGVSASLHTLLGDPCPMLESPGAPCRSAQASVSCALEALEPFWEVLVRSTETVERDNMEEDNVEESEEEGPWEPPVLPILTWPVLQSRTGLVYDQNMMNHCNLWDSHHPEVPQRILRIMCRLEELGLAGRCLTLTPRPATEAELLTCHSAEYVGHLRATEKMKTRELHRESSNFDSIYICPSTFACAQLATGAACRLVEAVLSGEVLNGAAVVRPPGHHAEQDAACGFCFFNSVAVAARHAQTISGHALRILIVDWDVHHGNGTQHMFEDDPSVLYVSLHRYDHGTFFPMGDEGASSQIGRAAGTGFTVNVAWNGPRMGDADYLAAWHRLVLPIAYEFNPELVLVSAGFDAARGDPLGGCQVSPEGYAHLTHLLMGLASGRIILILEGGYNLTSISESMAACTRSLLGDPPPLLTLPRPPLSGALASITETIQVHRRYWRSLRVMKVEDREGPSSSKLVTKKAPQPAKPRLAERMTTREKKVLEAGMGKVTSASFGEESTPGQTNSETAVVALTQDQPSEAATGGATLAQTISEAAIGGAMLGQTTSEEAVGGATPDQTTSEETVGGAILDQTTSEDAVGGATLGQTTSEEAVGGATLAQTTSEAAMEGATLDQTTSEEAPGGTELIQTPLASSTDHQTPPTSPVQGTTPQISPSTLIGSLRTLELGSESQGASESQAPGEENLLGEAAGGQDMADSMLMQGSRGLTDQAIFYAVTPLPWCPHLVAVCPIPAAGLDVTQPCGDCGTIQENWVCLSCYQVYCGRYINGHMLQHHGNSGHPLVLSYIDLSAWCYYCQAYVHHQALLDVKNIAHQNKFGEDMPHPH

[6] = test system: Resting CD4+ T cells isolated from a patient fully suppressed on antiretroviral therapy; test: Reactivation of virus in resting CD4+ T cells of a suppressed patient (HIV-1 p24 ELISA); format: cell-based; settings: 1 μM, 48 hours, then co-culture with MOLT4/CCR5 cells 7 days; preliminary data
Source text: Cells were washed and co-cultured with MOLT4/CCR5 cells for 7 days. R Cellular supernatants were collected for HIV-1 p24 ELISA. N.R—non reactive.

[7] = test system: KDAC1, KDAC2, and KDAC3; settings: background statement; cited from earlier work

Row | Compound | KDAC Inhibition Activity KDAC8 (% inhibition) [1] | KDAC Inhibition Activity KDAC1 (% inhibition) [2] | KDAC Inhibition Activity KDAC3 (% inhibition) [3] | KDAC Inhibition Activity KDAC6 (% inhibition) [5] | further results
1 | CC(=O)SCC/C=C/[C@@H]1CC(=O)NCc2cc(ccn2)C2=N[C@@](C)(CS2)C(=O)N[C@@H](C(C)C)C(=O)O1 [SD-L-256, reference compound] | – | – | – | – | inhibition at 30 µM [1]: 39%; pIC50 [1]: < 4.52; pIC50 ([2]; 10-point dose curve from 30 μM): 5.46; pIC50 [3]: 6.33; IC50 ([3]; read-out: KDAC Inhibition Activity (pIC50) KDAC3 (converted)): 479 nM; pEC50 [4]: 5.80; pIC50 ([5]; 10-point dose curve from 30 μM): 5.79
2 | CCCCCCCC(=O)SCC/C=C/[C@@H]1CC(=O)NCc2nc(cs2)C2=N[C@@](C)(CS2)C(=O)N[C@@H](C(C)C)C(=O)O1 [Largazole, largazole] | – | – | – | – | inhibition at 30 µM [1]: 28%; pIC50 [2]: 5.63; reactivation of virus from latency, HIV-1 p24 ELISA in culture supernatants [6]: able to reactivate virus from latency; potency against KDAC1, KDAC2, and KDAC3 [7]: picomolar range; pEC50 [4]: 6.82
3 | CC(C)[C@@H]1NC(=O)[C@H]2CCCN2C(=O)[C@@H]2CCCN2C(=O)C[C@@H](C(=O)NCCCC(=O)NO)NC1=O [Compound 25a, Cyclo-Asp(Pro-^DPro-Val)-NHCH2CH2CH2CONHOH] (P[dP]VD[GABA]-{NHOH}; lactam N-4) | – | – | – | – | inhibition at 30 µM [1]: 34%; pIC50 [1]: < 4.52; inhibition at 30 µM [2]: 25%; pIC50 ([2]; 10-point dose curve from 30 μM): < 4.52; inhibition at 30 µM [3]: 45%; pIC50 [3]: < 4.52; inhibition at 30 µM [5]: 80%
4 | Cyclo-^DAsp(Pro-^DPro-Val)-NHCH2CH2CH2SCH3 [Compound 19b] | 27% | 1% | Not active | Not active | –
5 | Cyclo-Asp(Pro-^DPro-Val)-NHCH2CH2CH2COOMe [Compound 23a] | Not active | Not active | 7% | Not active | –
6 | Cyclo-Asp(^DPro-Pro-Val)-NHCH2CH2CH2SCH3 [Compound 7a] | 5% | Not active | Not active | 6% | –
7 | Cyclo-^DAsp(^DPro-Pro-Val)-NHCH2CH2CH2OH [Compound 10b] | 25% | 1% | 9% | 1% | –
8 | Cyclo-Asp(Pro-^DPro-Val)-NHCH2CH2S—SCH2CH2NH2 [Compound 26a] | 10% | 15% | 5% | 10% | –
9 | Cyclo-Asp(Pro-^DPro-Val)-NHCH2CH2SH [Compound 17a] | 5% | Not active | 2% | 15% | –
10 | Cyclo-^DAsp(^DPro-Pro-Val)-NHCH2CH2SH [Compound 5b] | 6% | Not active | Not active | 23% | –
11 | Cyclo-^DAsp(Pro-^DPro-Val)-NHCH2CH2CH2COOH [Compound 24b] | 38% | Not active | 9% | Not active | –
12 | Cyclo-^DAsp(^DPro-Pro-Val)-OBn [Compound 1b] | 9% | 7% | 10% | 8% | –
13 | Cyclo-^DAsp(Pro-^DPro-Val)-NHCH2CH2CH2S(═O)2CH3 [Compound 21b] | 8% | Not active | Not active | 12% | –
14 | Cyclo-Asp(Pro-^DPro-Val)-NHCH2CH2CH2COOH [Compound 24a] | 36% | 4% | 8% | Not active | –
15 | Cyclo-Asp(Pro-^DPro-Val)-NHCH2CH2CH2SH [Compound 18a] | 4% | Not active | 1% | 19% | –
16 | Cyclo-Asp(^DPro-Pro-Val)-NHCH2CH2CH2S(═O)2CH3 [Compound 9a] | 17% | Not active | 4% | Not active | –
17 | Cyclo-^DAsp(Pro-^DPro-Val)-NHCH2CH2CH2S(═O)CH3 [Compound 20b] | 10% | 1% | 16% | 1% | –
18 | Cyclo-Asp(^DPro-Pro-Val)-NHCH2CH2S—SCH2CH2NH2 [Compound 15a] | 1% | Not active | Not active | Not active | –

Reference: patent US10421778B2, “Isoform-selective lysine deacetylase inhibitors” (WASHINGTON UNIVERSITY, priority 2015, dated 2019)
